Test results as given in publication PMC7352571, “New Anti-Cancer Strategy to Suppress Colorectal Cancer Growth Through Inhibition of ATG4B and Lysosome Function” (Cancers, 2020).

Experiments:
[1] = test system: proteolytic activity of lysosomes in HeLa cells; experiment: DQ-BSA Red assay; type: cell-based; conditions: 6 h, 163N 5 or 10 µM, Baf 0.5 µM, E64D 25 µM plus pepstatin A 50 µM
Experimental: Figure 5 163N causes lysosome dysfunction. […] . (C) HeLa cells were treated with or without 163N (10 µM) for 6 h, followed by immunostaining using cathepsin B and LAMP1 antibody. The colocalization of cathepsin B and LAMP1 was measured.
DQ-BSA Red assay: cells were incubated with 10 µg/mL DQ-BSA Red in EBSS medium at 37° for 1.5 h, and then new medium with or without the indicated compounds were added for another 4 or 6 h, and then fluorescence microscopy was used for detecting the intensity of red fluorescent.
Supplementary Materials: New Anti-Cancer Strategy
to Suppress Colorectal Cancer Growth Through
Inhibition of ATG4B and Lysosome Function
Figure S1. Compounds with a 6-methylpyrimidine-2,4-diamine structure could cause lysosome
inhibition. (A) The structure of the representative lysosome inhibitors. (B) GFP-LC3B HeLa cells were
treated with Baf (0.5 µM) or 5 µM of different lysosome inhibitors for 2 h, then LysoTracker Red (LTR,
25 ng/mL) was used and the relative LTR fluorescent intensity was measured. (C) HeLa cells were
firstly treated with 10 µg/mL DQ-BSA for 1.5 h, and then treated with Rap (1 µM), Baf (0.5 µM), E64D
(25 µM) plus pepstatin A (50 µM), or 5 µM of different lysosome inhibitors for 4 h.
Cancers 2020, 12, x; www.mdpi.com/journal/ cancers […]

[2] = test system: lysosome acidity in HeLa cells; experiment: LysoTracker Red (LTR) assay, HeLa; type: cell-based; conditions: 6 h, 163N 5 or 10 µM, Rap 1 µM, E64D 25 µM plus pepstatin A 50 µM
Experimental: Figure 5 163N causes lysosome dysfunction. […] (C) HeLa cells were treated with or without 163N (10 µM) for 6 h, followed by immunostaining using cathepsin B and LAMP1 antibody. The colocalization of cathepsin B and LAMP1 was measured.
LTR assay: cells were incubated with LTR (25 nM) in HBSS medium at 37° for 30 min, and then fluorescence microscopy was used for detecting fluorescence intensity.

ATG4B = target: T1, ATG4B (Homo sapiens, UniProt Q9Y4P1); experiment: FRET-based assay for ATG4B activity
T1 sequence (Q9Y4P1 1-393): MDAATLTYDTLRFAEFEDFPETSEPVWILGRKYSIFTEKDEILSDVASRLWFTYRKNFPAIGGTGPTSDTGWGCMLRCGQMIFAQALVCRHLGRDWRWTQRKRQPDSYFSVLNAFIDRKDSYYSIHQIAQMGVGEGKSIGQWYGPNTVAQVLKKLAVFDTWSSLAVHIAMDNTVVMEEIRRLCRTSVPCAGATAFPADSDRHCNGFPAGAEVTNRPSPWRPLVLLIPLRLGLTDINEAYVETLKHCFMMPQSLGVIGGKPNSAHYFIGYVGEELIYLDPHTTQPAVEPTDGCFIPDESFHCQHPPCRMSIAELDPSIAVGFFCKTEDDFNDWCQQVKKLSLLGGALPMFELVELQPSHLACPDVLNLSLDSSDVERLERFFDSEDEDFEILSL
Experimental: A FRET-based assay for detecting ATG4B activity was carried out as described [45].

HCT116 cells = experiment: CCK-8 cell viability assay, HCT116; type: cell-based, Human; conditions: Homo sapiens, HCT-116; CCK-8 assay, 48 h
Experimental: (§1) Cells were seeded and incubated overnight in 96-well plates at a density of 5 × 10^3 cells/well. […] A total of 10 µL CCK-8 were added to each well for additional 1 h and cell viability was measured by CCK-8 assay. Absorbance was measured at 450 nm. The IC50 values were calculated by GraphPad Prism 7 (GraphPad Software Inc., San Diego, CA, USA).

HL60 cells = experiment: CCK-8 cell viability assay, HL60; type: cell-based; conditions: Homo sapiens, HL-60; CCK-8 assay
Experimental: as §1

HeLa cells = experiment: CCK-8 cell viability assay, HeLa; type: cell-based; conditions: Homo sapiens, HeLa; CCK-8 assay, 48 h
Experimental: as §1

Row | SMILES | dequenching of DQ-BSA (proteolytic activity of lysosome) [1] | LTR red fluorescence / acidic vesicles [2] | IC50 (ATG4B) [µM] | IC50 (HCT116 cells) [µM] | IC50 (HL60 cells) [µM] | IC50 (HeLa cells) [µM]
1 | CO/C1=C\C(C)=C\[C@@H](C)[C@@H](O)[C@@H](C)C/C(C)=C/C=C/[C@H](OC)[C@@H]([C@@H](C)[C@@H](O)[C@H](C)[C@@]2(O)C[C@@H](O)[C@H](C)[C@@H](C(C)C)O2)OC1=O [Baf, Bafilomycin A1, reference compound] | nearly no dequenching of DQ-BSA |  |  |  |  | 
2 | CO[C@H]1C[C@@H]2CC[C@@H](C)[C@@](O)(O2)C(=O)C(=O)N2CCCC[C@H]2C(=O)O[C@H]([C@H](C)C[C@@H]2CC[C@@H](O)[C@H](OC)C2)CC(=O)[C@H](C)/C=C(\C)[C@@H](O)[C@@H](OC)C(=O)[C@H](C)C[C@H](C)/C=C/C=C/C=C/1C [Rap, rapamycin, reference compound] |  | stable |  |  |  | 
3 | COc1ccccc1/C=C/c1cc(O)cc(=O)[nH]1 [XGS00025] |  |  | 29.2 | > 100 | > 100 | > 100
4 | Cc1ccc(/C=C/c2cc(O)cc(=O)[nH]2)o1 [XGS00031] |  |  | 13 | > 100 | > 100 | > 100
5 | COc1cccc(/C=C/c2cc(N)cc(O)n2)c1 [XGS00043] |  |  | 36.3 | > 100 | > 100 | > 100
6 | Nc1cc(O)nc(/C=C/c2ccc(Cl)cc2)c1 [XGS00046] |  |  | 39.1 | > 100 | > 100 | > 100
7 | Nc1cc(O)nc(/C=C/c2ccco2)c1 [XGS00048] |  |  | 13.8 | > 100 | > 100 | > 100
8 | CCN1C(=O)/C(=C\c2cn(CC(=O)O)c3ccccc23)C(=O)N(c2ccc(Cl)cc2)C1=S [XGS00119] |  |  | 7.37 | > 100 | > 100 | > 100
9 | N/C(=N\[N+](=O)[O-])N/N=C/c1ccc(-c2ccc(-n3cnnn3)cc2)o1 [XOS00117] |  |  | 6.65 | > 100 | > 100 | > 100
10 | CC(=O)Nc1ccc(/N=C/c2c(C)c(C#N)c3[nH]c4cc(C)ccc4n3c2=O)cc1 [XOS00125] |  |  | 40.6 | > 100 | > 100 | > 100
11 | CCOC(=O)c1cnc2c(/N=N/c3ccc(OCC)cc3)c(N)nn2c1N [XOS00149] |  |  | 44 | > 100 | > 100 | > 100
12 | COc1cccc(-c2cc3nc(-c4cccnc4)c(C#N)c(N)n3n2)c1 [XOS00154] |  |  | 40.7 | > 100 | > 100 | > 100
13 | CCOC(=O)c1c(-c2ccccc2)oc2ccc(O)cc12 [XOS00163] |  |  | 6.2 | 23 | 31.7 | 32
14 | COc1cccc(-c2cc3c([N+](=O)[O-])cc([N+](=O)[O-])cc3[nH]2)c1OC [XOS00176] |  |  | 23.8 | > 100 | > 100 | > 100
15 | O=C(Nc1ccc(-c2cc3ccccc3o2)cc1)c1ccco1 [XOS00201] |  |  | 8.98 | 19.6 | > 100 | 25.6
16 | COc1c2c(cc3oc(=O)c4c5cc(O)c(O)cc5oc4c13)OCC2 [XOS00207] |  |  | 2.31 | 17.6 | 60.7 | 87.1
